According to patent publication US10695330B2, “Methods of treatment” (Global Blood Therapeutics, Inc., priority 2015, dated 2020):

Experiments:
activated neutrophils = assay: Oxidative burst in activated neutrophils; format: cell-based; details: in vitro
From the text: Reactive oxygen species (ROS) released from activated white blood cells cause lung injury as well as fibrotic changes in patients with IPF. […] Thus, the compounds described herein could also provide a method to inhibit the adverse effects of inflammation in a patient. Reduction in systemic pro-inflammatory cytokines (tumor necrosis alpha and interleukin-6) also has the potential to exert a broad anti-inflammatory effect which would supplement the beneficial effect of alleviation of hypoxemia via increased hemoglobin-O2 affinity.

Hb [1] = biological target: T1, Hb (Mus musculus, UniProt P01942); assay: LPS-induced acute lung injury mouse model: PK/PD (Hb occupancy, hemoximetry); format: in vivo; details: LPS-induced ALI mice
T1 construct: from tissue; host or cells: whole blood (red blood cells) of dosed C57BL / C57BL/6J mice
Method: Adult, 8-10-week-old male C57BL/6J mice (Jackson Laboratory, Bar Harbor, Me.), were anesthetized with isoflurane, injected with 100 μg LPS (Sigma, St. Louis, Mo.) in 100 μL PBS by direct intratracheal injection. After 24 hours, mice were given Compound 1 (70 or 140 mg/kg formulated in dimethylacetamide, polyethylene glycol 400 (PEG400) and 40% cavitron in a ratio of 1:5:4, respectively) or vehicle only (5 μL/g) by oral gavage 2 hours prior to placement in a hypoxia chamber. Mice were exposed to either 10 or 5% O2 for 4 hours. Oxygen saturation (SaO2) was measured with a pulse oximeter (STARR Life Sciences, Oakmont, Pa.) at baseline and hourly during hypoxic exposure. During hypoxic exposure, mice were monitored continuously and a moribund check was done every 15 minutes. Time to death was assessed by time to moribund status. Mice were determined to be moribund if they could not right themselves when placed in a supine position.
Blood was collected by cardiac puncture in the hypoxic chamber. Blood gases were measured using the i-STAT portable analyzer within the hypoxic environment (Abaxis, Union City, Calif.). Remaining blood samples were used for hemoximetry and pharmacokinetic analysis. For sample collection, mice were euthanized with pentobarbital overdose. A bronchoaleveolar lavage (BAL) was performed with 900 uL Saline. Blood was collected by retro orbital puncture, and then spun to collect plasma. Lungs were removed and flash frozen. All samples were stored at −80° C. until further study. BAL inflammatory cell counts and differentials were determined manually after staining cytospins with DiffQuik. BAL protein was measured using a Pierce BCA Protein Assay Kit (Thermo Scientific, Waltham, Mass.).
Hemoximetry was used to determine the PD effect of Compound 1 in whole blood from dosed mice as described above. Representative oxygen equilibrium curves (OECs) of whole blood obtained from mice dosed with Compound 1 (blue and red lines) or vehicle only (black line) are shown in FIG. 3A.

Hb [2] = biological target: T1, Hb; assay: Bleomycin mouse model: PK/PD (blood and plasma concentrations, Hb occupancy, hemoximetry); format: in vivo; details: bleomycin treated mice; for calculated Hb occupancy: 4 hours after last dose
Method: Compound 1 (formulated in dimethylacetamide: polyethylene glycol 400 (PEG400): 40% cavitron at a 1:5:4 ratio) was administered at either low dose (first day 50 mg/kg followed by 40 mg/kg daily) or high dose (first day 150 mg/kg followed by 85 mg/kg daily) via oral gavage to bleomycin treated mice once daily from day 8 to day 15. Animals in group 1 were administered vehicle via oral gavage. The dosing volume was 200 μL. The study animals were sacrificed on day 15 at 4 hours post final dose.
Samples for hemoximetry and pharmacokinetics (PK) were taken 4 hours following the last dose of the dosing regimen. BAL fluid was collected from the lungs of the animals by lavaging the lung with 1 ml Hanks balanced salt media (HBSS). Lungs were harvested from each animal and weighed. They were then inflated by ˜0.5 mL of 10% NBF and fixed in a formalin container for subsequent histopathological analysis.
Compound 1 blood and plasma concentrations were determined by LC-MS 4 hours after the last dose. Both standard and QC blood samples were pre-incubated at 37° C. for 1 hr. After incubation, all standard and QC samples were diluted with 2-fold volume of water to match with the condition of samples. Plasma standard and QC were proceeding without pre-incubation. […] The peak area of m/z 341->203 product ion (Compound 1) was measured against that of the m/z 345->159 product ion 2-hydroxy-6-((2-(1-(propan-2-yl-d7)-1H-pyrazol-5-yl)pyridin-3-yl)methoxy)benzaldehyde in positive ion mode. […]
Hemoglobin occupancy by Compound 1 was calculated by dividing the concentration of Compound 1 in RBCs by the Hb concentration in RBCs (5 mM). RBC was calculated from whole blood and plasma concentration data using the following equation: […]
Hemoximetry measurements (PD analysis) were conducted in a Hemox Analyzer (TCS Scientific Corporation, New Hope, Pa.). […] The absorbance at wavelengths that correspond to the isosbestic point (570 nm) and deoxy Hb (560 nm) was recorded as a function of the sample O2 tension (pO2). […]

T1 sequence (P01942 2-142 limits assumed): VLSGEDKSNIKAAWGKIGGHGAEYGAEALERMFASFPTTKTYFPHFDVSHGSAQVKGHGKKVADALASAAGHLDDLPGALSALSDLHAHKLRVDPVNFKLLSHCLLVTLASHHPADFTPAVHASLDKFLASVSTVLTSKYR
T1 sequence (P02088 2-147 partner limits assumed): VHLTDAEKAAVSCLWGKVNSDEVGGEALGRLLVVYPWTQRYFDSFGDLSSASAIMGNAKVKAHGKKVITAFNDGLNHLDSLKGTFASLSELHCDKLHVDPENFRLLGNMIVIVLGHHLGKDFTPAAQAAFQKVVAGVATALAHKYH

**Q.** For `O=Cc1c(O)cccc1OC[C@@H]1CCCCN1C(=O)c1cccnc1` [Compound 1, (S)-2-hydroxy-6-((1-nicotinoylpiperidin-2-yl)methoxy)benzaldehyde], which “anti-oxidative activity (oxidative burst)” value (activated neutrophils) is on record?
**A.** Its value is “displayed anti-oxidative”.

**Q.** And the Hb occupancy (Hb [1]; 70 mg/kg oral)?
**A.** Its Hb occupancy is ~19%.

**Q.** What about the Hb occupancy (Hb [1]; 140 mg/kg oral) of the same compound?
**A.** The Hb occupancy was ~27%.

**Q.** What about the “Hb O2 affinity (left-shift in the OEC) in whole blood from dosed mice” value (Hb [1]; 70 or 140 mg/kg oral, vs vehicle) of the same compound?
**A.** The value was “dose-dependent increase in Hb O2 affinity relative to control”.

**Q.** What about the “calculated Hb occupancy” value (Hb [2]; high dose regimen (150 then 85 mg/kg daily)) of the same compound?
**A.** Its value is 36.7%.

**Q.** And the “shift in the OEC (Hb-oxygen binding affinity)” value (Hb [2]; low and high dose)?
**A.** The value was “significant left shift in the OEC in a dose-response manner”.

**Q.** What about the “calculated Hb occupancy” value (Hb [2]; low dose regimen (50 then 40 mg/kg daily)) of the same compound?
**A.** The value was 18.0%.
